# ChEMBL document CHEMBL1201862, “PubChem BioAssay data set” (2004)
# Calls of active or inactive are those of the source.
# Key:
# [1] = biological target: Hepatocyte nuclear factor 4-alpha (Homo sapiens, UniProt P41235); type: functional, cell-based;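 also: biochemical luminescence-based dose-response counterscreen measuring inhibition of HNF4 dimerization, run alongside a screen for blockers of ABHD5–perilipin-5 interaction; split luciferase complementation of HNF4 fusion proteins in cell lysate measuring dimerization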
# [2] = viability of PTEN-deleted HCT116 cells – cell-based, HCT116 PTEN knockout, dose response (AID 1047); type: functional;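 also: HCT116 colon tumor cells with PTEN knocked out; cells exposed to compound for 60 hours before readout; potency for loss of cell viability measured by luminescence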
# [3] = viability of HCT116 lacking mutant beta-catenin – cell-based, human colon tumor, dose response (AID 1045); type: functional;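 also: HCT116 colon tumor cells with beta catenin knocked out; cells exposed to compound for 60 hours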
# [4] = biological target: Ras and Rab interactor 1/Tyrosine-protein kinase ABL1 (Homo sapiens, UniProt P00519+Q13671); type: functional;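 also: biochemical TR-FRET dose-response test measuring inhibition of binding between Rin1 and Abl proteins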
# [5] = biological target: T1, Low molecular weight phosphotyrosine protein phosphatase (Homo sapiens, UniProt P24666); type: functional; conditions: read-out: IC50_Mean
# T1 sequence (P24666 whole entry): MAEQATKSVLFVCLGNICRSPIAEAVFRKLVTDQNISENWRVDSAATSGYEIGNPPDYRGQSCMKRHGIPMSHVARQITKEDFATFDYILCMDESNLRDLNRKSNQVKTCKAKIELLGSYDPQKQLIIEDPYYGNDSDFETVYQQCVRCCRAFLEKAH
# [6] = biological target: T2, Carboxy-terminal domain RNA polymerase II polypeptide A small phosphatase 1 (Homo sapiens, UniProt Q9GZU7); assay: CTDSP1 inhibitors, concentration-response, biochemical, absorbance readout, ultra-high-throughput screen actives (AID 540297); type: functional
# T2 sequence (Q9GZU7 whole entry): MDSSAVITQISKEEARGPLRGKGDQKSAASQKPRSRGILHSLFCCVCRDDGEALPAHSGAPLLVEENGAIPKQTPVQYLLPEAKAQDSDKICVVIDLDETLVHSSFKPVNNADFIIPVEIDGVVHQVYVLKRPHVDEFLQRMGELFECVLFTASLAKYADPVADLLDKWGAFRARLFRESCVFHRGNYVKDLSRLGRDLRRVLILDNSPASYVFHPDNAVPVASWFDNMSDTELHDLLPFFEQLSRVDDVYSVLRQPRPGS
# [7] = biological target: T1, Low molecular weight phosphotyrosine protein phosphatase; type: functional; conditions: read-out: IC50_Mean; remark: listed apart in the source
# [8] = reduction of Shn3 3'UTR-driven luciferase in osteoblasts – cell-based, Clone20 osteoblasts, firefly luciferase, cherry-picked, dose response (AID 624132); type: functional;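 also: firefly luciferase luminescence from reporter carrying the Shn3 3'UTR in osteoblasts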
# [9] = loss of viability in HepG2 cells – cell-based, CellTiter-Glo, cherry-picked, cytotoxicity control for Shn3 inhibitor project, dose response (AID 624134); type: functional
# [10] = non-specific 3'UTR reporter inhibition in Clone20-Shn3RL – cell-based, Renilla luciferase, cherry-picked, counter-screen for Shn3 inhibitor project, dose response (AID 624133); type: functional
# [11] = biological target: T3, Ubiquitin-conjugating enzyme E2 N (Homo sapiens, UniProt P61088); type: functional
# T3 sequence (P61088 whole entry): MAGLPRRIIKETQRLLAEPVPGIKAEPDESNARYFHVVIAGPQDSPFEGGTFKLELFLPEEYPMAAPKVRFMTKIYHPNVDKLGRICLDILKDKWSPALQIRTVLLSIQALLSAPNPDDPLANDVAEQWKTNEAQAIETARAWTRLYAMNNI
# [12] = Luminescence Cell-Based Dose Retest to Confirm Inhibitors of Cancer Stem Cells. [Related pubchem assays (depositor defined):AID2717, AID2721]; type: functional; conditions: Homo sapiens
# [13] = biological target: T3, Ubiquitin-conjugating enzyme E2 N; type: functional; remark: listed apart in the source
# [14] = tested on: INS1; assay: INS-1E survival protection against cytokine death – cell-based, luminescence, retest, dose response (AID 449756); type: functional; conditions: Rattus norvegicus;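 also: cell death triggered by IL-1 beta plus TNF-alpha plus IFN-gamma mixture; protective hits raise ATP signal compared with cytokine alone wells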
# [15] = biological target: T4, Bcl-2-related protein A1 (Mus musculus, UniProt Q07440); type: functional;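 also: confirmatory dose–response counterscreen on Bfl-1, used to check hits from a UBC13 polyubiquitin inhibitor campaign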
# T4 sequence (Q07440 whole entry): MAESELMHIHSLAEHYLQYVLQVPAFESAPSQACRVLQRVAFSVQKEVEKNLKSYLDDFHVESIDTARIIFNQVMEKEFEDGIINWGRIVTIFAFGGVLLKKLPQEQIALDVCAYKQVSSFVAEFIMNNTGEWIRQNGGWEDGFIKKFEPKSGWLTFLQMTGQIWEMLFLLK
# [16] = biological target: T5, Apoptotic protease-activating factor 1 (Homo sapiens, UniProt O14727); type: functional;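 as to EC50 Mean: caspase-3 cleavage of fluorogenic Rh110 DEVD substrate downstream of apoptosome activation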
# T5 sequence (O14727 whole entry): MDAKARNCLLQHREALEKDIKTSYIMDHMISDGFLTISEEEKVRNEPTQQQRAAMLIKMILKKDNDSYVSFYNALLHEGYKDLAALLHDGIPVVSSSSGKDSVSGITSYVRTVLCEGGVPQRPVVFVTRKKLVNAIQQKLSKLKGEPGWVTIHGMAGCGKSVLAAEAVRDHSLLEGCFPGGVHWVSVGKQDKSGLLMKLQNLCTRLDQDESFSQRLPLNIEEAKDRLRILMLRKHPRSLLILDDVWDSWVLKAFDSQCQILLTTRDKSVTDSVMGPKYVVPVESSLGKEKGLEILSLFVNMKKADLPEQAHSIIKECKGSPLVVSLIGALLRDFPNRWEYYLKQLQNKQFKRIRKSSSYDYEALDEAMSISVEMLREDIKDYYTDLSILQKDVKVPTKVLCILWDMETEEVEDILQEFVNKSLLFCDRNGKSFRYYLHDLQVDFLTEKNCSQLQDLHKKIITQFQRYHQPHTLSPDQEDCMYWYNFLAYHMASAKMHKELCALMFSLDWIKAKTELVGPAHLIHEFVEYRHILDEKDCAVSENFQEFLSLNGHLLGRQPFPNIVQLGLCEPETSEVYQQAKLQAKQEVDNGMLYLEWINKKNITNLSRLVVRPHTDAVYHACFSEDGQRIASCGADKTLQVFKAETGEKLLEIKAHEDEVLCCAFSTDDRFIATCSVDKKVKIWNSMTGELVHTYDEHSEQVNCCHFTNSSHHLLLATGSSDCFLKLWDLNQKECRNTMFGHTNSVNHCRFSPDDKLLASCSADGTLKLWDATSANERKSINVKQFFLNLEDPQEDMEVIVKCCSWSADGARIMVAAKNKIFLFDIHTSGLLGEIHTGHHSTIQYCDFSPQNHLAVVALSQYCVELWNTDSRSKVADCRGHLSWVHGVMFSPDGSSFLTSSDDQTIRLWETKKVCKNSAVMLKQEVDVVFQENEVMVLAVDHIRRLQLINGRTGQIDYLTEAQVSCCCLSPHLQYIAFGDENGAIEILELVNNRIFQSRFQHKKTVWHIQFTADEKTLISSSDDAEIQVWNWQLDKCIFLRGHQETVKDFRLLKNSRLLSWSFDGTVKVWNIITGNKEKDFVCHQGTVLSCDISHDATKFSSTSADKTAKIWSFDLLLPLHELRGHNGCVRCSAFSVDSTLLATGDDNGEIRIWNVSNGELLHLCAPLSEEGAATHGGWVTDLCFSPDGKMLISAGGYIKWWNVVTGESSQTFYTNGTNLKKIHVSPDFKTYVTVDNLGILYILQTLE
# [17] = biological target: T6, Interleukin-8 (Homo sapiens, UniProt P10145); assay: Dose Response confirmation of uHTS small molecule hits for cystic fibrosis induced NFkb Inhibitors in a PAF-induced IL8 counterscreen.; type: functional; conditions: read-out: IC50_Mean
# T6 sequence (P10145 whole entry): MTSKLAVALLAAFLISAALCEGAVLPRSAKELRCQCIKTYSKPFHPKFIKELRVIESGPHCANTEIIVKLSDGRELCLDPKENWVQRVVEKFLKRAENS
# [18] = tested on: H9c2; assay: cells; type: functional, cell-based; conditions: Rattus norvegicus, H9c2, Myocardium;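 also: confirmatory concentration-response retest of ultra-high-throughput screening hits for modulation of myocardial damage; cell death induced by hydrogen peroxide oxidative stress; compound pretreatment for 60 min then peroxide exposure for 2 h; potency is for protecting the cells against peroxide damage rather than for killing them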
# [19] = inhibition of ARNT PAS-B/TACC3 complex formation – biochemical, AlphaScreen, cherry-picked samples, confirmation (AID 651703); type: functional, Homo sapiens;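 also: His-tagged ARNT PAS-B domain paired with GST-TACC3 E629A dimer coactivator fragment; potency of inhibitors that break up the complex and lower AlphaScreen signal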
# [20] = biological target: T7, Small ubiquitin-related modifier 1 (Homo sapiens, UniProt P63165); assay: SUMO1 protein interaction blockers, potency – biochemical, fluorescence polarization, uHTS hits, dose response (AID 624382); type: functional; conditions: read-out: IC50_Mean
# [21] = biological target: T7, Small ubiquitin-related modifier 1; assay: SUMO1 protein-protein binding blockers, potency – biochemical, FRET, dose response (AID 624383); type: functional; conditions: read-out: IC50_Mean
# [22] = tested on: HEK293; assay: EBV LMP1 TES2 canonical NF-kB signalling blockers – cell-based, HEK293, luciferase, cherry-pick, dose response (AID 588343); type: functional; conditions: Homo sapiens
# [23] = biological target: T8, DNA repair and recombination protein RAD54-like (Homo sapiens, UniProt Q92698); assay: RAD54 Holliday junction migration blockers – biochemical, fluorescence, cherry-picked samples, dose series, confirmation (AID 651657); type: functional
# T8 sequence (Q92698 whole entry): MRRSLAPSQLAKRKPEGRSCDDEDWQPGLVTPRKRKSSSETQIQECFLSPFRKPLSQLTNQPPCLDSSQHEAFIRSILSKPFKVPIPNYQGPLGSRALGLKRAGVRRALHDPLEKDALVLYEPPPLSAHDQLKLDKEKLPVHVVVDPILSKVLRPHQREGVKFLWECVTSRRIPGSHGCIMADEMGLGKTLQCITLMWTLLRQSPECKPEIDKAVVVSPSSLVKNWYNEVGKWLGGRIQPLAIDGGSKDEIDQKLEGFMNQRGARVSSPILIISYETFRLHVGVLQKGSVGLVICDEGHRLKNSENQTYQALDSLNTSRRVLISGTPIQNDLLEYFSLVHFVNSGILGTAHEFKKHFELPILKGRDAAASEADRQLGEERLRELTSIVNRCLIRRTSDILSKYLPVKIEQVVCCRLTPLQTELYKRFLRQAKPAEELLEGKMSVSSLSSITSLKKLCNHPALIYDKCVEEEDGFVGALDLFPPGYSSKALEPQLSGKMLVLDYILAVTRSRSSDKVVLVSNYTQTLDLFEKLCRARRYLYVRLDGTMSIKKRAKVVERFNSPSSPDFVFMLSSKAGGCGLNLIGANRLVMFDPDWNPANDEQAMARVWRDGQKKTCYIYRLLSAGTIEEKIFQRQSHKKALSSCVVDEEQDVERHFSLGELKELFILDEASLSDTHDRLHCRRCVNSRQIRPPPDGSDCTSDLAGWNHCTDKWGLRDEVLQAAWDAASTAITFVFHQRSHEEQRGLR
# [24] = biological target: Nucleotide-binding oligomerization domain-containing protein 2 (Homo sapiens, UniProt Q9HC29); assay: inhibition of NOD2-driven NF-kB reporter – cell-based, luminescence, uHTS, HEK293 (AID 1566); type: functional
# [25] = tested on: HEK293; assay: cells; type: functional, cell-based; conditions: Homo sapiens
# [26] = tested on: HEK293; assay: inhibition of NOD1-driven NF-kB reporter – cell-based, luminescence, uHTS, primary screen (AID 1578); type: functional; conditions: Homo sapiens
# [27] = tested on: HEK293; assay: cells; type: functional, cell-based; conditions: Homo sapiens; remark: listed apart in the source
# [28] = tested on: HEK293; assay: cells; type: functional, cell-based; conditions: Homo sapiens; remark: listed apart in the source
# [29] = tested on: HEK293; assay: NOD2 signaling inhibitors in MDP-stimulated cells, cell-based, uHTS, luminescence (AID 2001); type: functional; conditions: Homo sapiens
# [30] = biological target: T5, Apoptotic protease-activating factor 1; assay: SAR analysis of small molecule Activators of Apaf-1 in a Fluorescent assay.; type: functional; conditions: read-out: EC50_Mean
# T7 sequence (P63165 whole entry): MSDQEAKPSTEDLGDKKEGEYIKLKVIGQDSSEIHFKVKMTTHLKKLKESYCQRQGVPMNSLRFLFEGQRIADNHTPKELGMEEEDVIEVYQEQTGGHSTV
# Chain of Hepatocyte nuclear factor 4-alpha (P41235 whole entry, the tested form may be a part): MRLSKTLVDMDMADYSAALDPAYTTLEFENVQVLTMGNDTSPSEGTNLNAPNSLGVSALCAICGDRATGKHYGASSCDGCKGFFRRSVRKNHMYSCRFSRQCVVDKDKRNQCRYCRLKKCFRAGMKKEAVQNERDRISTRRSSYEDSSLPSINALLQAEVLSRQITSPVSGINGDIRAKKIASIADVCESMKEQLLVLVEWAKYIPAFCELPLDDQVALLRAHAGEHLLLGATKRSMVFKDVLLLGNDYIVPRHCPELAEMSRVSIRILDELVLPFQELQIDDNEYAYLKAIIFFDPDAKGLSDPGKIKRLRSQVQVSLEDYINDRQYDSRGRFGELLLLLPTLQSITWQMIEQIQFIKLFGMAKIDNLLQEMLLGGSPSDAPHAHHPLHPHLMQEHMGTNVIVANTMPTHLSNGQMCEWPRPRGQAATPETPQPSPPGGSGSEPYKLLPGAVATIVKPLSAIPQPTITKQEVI
# Chain of Ras and Rab interactor 1/Tyrosine-protein kinase ABL1 (P00519 whole entry): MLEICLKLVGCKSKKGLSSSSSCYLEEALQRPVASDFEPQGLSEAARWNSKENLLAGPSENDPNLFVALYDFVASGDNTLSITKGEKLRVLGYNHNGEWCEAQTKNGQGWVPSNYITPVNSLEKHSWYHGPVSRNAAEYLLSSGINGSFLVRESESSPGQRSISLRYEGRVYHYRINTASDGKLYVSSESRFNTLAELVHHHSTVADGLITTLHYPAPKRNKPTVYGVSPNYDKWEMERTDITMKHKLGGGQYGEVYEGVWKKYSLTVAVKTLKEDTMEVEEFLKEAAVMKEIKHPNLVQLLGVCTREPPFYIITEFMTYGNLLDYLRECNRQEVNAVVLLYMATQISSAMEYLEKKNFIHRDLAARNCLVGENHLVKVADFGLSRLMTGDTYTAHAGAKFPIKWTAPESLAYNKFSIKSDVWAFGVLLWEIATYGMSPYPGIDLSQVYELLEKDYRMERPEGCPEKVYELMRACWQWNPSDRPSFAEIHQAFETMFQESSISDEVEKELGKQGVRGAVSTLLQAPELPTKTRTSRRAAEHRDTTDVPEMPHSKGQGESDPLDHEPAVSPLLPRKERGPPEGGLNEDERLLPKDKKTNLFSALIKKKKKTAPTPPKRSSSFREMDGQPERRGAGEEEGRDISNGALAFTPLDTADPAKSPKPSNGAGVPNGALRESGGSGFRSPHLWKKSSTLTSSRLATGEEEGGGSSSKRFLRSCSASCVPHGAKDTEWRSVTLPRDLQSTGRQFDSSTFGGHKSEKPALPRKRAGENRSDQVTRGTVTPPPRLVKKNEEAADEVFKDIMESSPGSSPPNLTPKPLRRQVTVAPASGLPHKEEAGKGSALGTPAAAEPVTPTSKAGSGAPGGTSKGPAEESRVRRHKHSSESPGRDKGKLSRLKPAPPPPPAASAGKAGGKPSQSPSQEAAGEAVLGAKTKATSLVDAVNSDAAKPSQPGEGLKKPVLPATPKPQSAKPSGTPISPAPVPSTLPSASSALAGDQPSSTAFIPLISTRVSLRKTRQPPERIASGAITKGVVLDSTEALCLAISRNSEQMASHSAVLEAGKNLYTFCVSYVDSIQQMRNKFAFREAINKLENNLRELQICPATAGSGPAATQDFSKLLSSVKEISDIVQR
# Chain of Ras and Rab interactor 1/Tyrosine-protein kinase ABL1 (Q13671 whole entry): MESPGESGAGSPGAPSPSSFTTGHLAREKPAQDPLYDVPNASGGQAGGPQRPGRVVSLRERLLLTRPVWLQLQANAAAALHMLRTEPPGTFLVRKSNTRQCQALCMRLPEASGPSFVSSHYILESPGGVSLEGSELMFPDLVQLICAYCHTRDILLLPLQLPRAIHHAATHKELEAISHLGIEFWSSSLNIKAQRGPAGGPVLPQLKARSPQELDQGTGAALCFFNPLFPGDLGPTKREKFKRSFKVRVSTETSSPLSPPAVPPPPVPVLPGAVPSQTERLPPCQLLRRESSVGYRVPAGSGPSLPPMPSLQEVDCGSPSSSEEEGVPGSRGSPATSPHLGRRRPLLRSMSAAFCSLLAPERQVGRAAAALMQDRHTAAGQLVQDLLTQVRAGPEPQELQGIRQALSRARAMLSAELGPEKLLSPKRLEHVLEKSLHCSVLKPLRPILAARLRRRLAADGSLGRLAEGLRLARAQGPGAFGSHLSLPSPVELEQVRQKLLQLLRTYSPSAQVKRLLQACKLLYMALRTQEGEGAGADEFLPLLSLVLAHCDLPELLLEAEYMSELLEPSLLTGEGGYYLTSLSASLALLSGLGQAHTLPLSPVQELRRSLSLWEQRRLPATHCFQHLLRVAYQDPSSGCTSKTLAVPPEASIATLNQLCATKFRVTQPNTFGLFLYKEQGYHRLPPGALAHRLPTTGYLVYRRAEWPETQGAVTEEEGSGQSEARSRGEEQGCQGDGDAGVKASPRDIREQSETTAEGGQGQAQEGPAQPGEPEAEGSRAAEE
# Chain of Nucleotide-binding oligomerization domain-containing protein 2 (Q9HC29 whole entry, the tested form may be a part): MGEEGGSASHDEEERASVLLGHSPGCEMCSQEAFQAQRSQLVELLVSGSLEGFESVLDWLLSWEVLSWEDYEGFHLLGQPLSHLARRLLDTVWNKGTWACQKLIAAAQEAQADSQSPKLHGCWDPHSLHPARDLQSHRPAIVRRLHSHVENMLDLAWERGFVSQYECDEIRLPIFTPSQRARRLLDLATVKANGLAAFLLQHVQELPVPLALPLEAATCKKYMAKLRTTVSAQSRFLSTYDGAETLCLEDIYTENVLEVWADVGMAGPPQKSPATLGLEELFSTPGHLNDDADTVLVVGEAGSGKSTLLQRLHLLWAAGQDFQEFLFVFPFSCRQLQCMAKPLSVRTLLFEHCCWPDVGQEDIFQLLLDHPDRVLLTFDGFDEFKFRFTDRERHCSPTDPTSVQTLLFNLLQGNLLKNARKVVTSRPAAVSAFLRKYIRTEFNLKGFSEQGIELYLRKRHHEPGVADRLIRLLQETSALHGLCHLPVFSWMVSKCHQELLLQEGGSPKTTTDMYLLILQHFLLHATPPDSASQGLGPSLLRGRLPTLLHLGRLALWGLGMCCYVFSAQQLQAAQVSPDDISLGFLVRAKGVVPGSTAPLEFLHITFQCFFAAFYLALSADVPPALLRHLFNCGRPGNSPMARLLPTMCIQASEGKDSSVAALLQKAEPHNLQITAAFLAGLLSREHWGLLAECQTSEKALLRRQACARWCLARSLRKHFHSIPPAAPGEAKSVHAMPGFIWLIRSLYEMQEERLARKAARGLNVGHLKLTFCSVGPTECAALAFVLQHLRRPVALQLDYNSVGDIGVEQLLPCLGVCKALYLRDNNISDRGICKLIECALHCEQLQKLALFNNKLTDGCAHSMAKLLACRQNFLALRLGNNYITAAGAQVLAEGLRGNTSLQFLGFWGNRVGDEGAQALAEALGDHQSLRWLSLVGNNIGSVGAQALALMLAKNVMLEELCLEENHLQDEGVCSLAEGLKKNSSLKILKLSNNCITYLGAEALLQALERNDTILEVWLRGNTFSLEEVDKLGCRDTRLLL
compound,measurement,setting,value
CC1=CC(C)(C)Nc2ccc(OC(=O)CN3C(=O)C4CCCCC4C3=O)cc21 (configuration not stated),IC50,[1],4.53 µM (active)
same,EC50,[2],7.23 µM (active)
same,EC50,[3],4.74 µM (active)
CCOC(=O)N1CCN(C(=O)Nc2ccc(NC(=O)N3CCN(C(=O)OCC)CC3)cc2)CC1,IC50,[4],7.81 µM (active)
COc1ccc(NC(=O)/C(C#N)=C\c2ccc(OCc3ccc(C(=O)O)cc3)c(OC)c2)cc1,IC50,[5],35 µM (inactive)
same,IC50,[6],1.57 µM (active)
same,IC50,[7],31.5 µM (inactive)
CCCCn1c(SCC(=O)NCc2ccco2)nnc1-c1ccoc1C,IC50,[1],12.9 µM (inactive)
same,IC50,[6],6.25 µM (active)
NC1=NC[C@@H](CC2CCCCC2)N1CCc1cc(C(F)(F)F)cc(C(F)(F)F)c1,AC50,[8],9.92 µM (active)
same,AC50,[9],14.7 µM (active)
same,AC50,[10],24.8 µM (active)
same,IC50,[11],19.6 µM (active)
same,AC50,[12],3.19 µM (active)
same,IC50,[13],11.5 µM (active)
same,AC50,[14],7.06 µM (active)
same,IC50,[15],> 20 µM (inactive)
same,IC50,[16],60.4 µM (active)
CCOC(=O)CCCCCC(=O)Nc1ccc2c(c1)C(=O)N([C@H](C)CO)C[C@@H](C)[C@@H](CN(C)C(=O)CCC(F)(F)F)OCCCC[C@H](C)O2,IC50,[4],3.59 µM (active)
COc1ccc(CNc2nn3c(-c4cccc(C(=O)N(C)C)c4)cnc3s2)cc1,IC50,[17],18 µM (inactive)
same,IC50,[18],42.1 µM (inactive)
O=C(NCCCn1ccnc1)c1cc2cc([N+](=O)[O-])ccc2oc1=O,AC50,[19],131 µM (active)
CC(=O)Nc1ccc(NC(=O)c2cc(-c3ccc(C)cc3O)n[nH]2)cc1,IC50,[20],> 66.6 µM (inactive)
same,IC50,[21],13.3 µM (active)
COc1ccc(C(=O)Nc2cc(C)c(NC(=O)c3ccccc3OC)cn2)cc1,IC50,[20],> 66.6 µM (inactive)
same,AC50,[22],169 µM (active)
same,AC50,[23],100 µM (inactive)
same,IC50,[21],1.48 µM (active)
CCCCc1c(C)c(C#N)c2nc3ccccc3n2c1O,EC50,[24],8.9 µM (active)
same,IC50,[25],13.1 µM (active)
same,EC50,[26],4.1 µM (active)
same,IC50,[27],> 20 µM (inactive)
same,IC50,[28],> 20 µM (inactive)
same,IC50,[16],7.79 µM (active)
same,IC50,[29],10.8 µM (inactive)
CC(CNc1ccc(Oc2ccccc2)cc1)C(=O)O (configuration not stated),EC50,[30],> 100 µM (inactive)
COc1ccc(C2=NOC3(CC(=O)N(c4ccc(C)cc4)C3=O)C2)cc1 (configuration not stated),EC50,[30],> 100 µM (inactive)
